Tests used:
[1] = target: Transcription initiation factor TFIID subunit 1-like (Homo sapiens) (UniProt Q8IZX4); experiment: Selectivity interaction (Human bromodomain panel (DSF assay)) EUB0000233b TAF1L
[2] = target: T1, Serine/threonine-protein kinase DCLK2 (Homo sapiens) (UniProt Q8N568); conditions: at 10 µM
T1 sequence (whole entry): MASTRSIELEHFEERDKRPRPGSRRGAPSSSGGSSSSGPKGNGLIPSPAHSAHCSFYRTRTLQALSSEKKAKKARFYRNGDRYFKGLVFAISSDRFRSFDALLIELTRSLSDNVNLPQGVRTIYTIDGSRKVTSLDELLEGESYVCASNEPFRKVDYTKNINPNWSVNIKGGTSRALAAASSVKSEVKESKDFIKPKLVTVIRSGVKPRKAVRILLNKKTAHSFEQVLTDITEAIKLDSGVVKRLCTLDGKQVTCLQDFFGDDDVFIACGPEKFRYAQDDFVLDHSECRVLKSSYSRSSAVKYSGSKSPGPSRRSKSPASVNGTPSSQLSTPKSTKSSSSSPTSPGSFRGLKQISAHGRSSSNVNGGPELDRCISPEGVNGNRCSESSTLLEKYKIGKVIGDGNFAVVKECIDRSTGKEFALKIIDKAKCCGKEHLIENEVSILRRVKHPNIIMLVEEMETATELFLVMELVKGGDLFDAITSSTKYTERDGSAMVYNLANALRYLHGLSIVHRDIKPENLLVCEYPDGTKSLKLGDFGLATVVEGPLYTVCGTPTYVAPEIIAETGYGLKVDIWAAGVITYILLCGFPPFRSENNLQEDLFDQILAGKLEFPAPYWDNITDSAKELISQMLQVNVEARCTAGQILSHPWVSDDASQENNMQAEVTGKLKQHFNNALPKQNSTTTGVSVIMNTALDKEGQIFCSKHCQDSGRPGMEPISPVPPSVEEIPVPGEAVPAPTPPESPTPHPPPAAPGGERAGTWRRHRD

[3] = target: Protein kinase C beta type (Homo sapiens, UniProt P05771); experiment: Selectivity interaction (Kinase panel (Z-LYTE Assay)) EUB0001632a PRKCB; conditions: at 10 µM
[4] = target: Angiopoietin-1 receptor (Homo sapiens) (UniProt Q02763); experiment: Selectivity interaction (KinomeScan (DiscoverX)) EUB0000695a TEK; conditions: at 100 nM
[5] = target: Serine/threonine-protein kinase SBK1 (Homo sapiens) (UniProt Q52WX2); experiment: Selectivity interaction (KinomeScan (DiscoverX)) EUB0000695a SBK1; conditions: at 100 nM
[6] = target: T2, Serine/threonine-protein kinase TBK1 (Homo sapiens) (UniProt Q9UHD2); experiment: Selectivity interaction (KinomeScan (DiscoverX)) EUB0000595a TBK1; conditions: at 10 µM
T2 sequence (whole entry): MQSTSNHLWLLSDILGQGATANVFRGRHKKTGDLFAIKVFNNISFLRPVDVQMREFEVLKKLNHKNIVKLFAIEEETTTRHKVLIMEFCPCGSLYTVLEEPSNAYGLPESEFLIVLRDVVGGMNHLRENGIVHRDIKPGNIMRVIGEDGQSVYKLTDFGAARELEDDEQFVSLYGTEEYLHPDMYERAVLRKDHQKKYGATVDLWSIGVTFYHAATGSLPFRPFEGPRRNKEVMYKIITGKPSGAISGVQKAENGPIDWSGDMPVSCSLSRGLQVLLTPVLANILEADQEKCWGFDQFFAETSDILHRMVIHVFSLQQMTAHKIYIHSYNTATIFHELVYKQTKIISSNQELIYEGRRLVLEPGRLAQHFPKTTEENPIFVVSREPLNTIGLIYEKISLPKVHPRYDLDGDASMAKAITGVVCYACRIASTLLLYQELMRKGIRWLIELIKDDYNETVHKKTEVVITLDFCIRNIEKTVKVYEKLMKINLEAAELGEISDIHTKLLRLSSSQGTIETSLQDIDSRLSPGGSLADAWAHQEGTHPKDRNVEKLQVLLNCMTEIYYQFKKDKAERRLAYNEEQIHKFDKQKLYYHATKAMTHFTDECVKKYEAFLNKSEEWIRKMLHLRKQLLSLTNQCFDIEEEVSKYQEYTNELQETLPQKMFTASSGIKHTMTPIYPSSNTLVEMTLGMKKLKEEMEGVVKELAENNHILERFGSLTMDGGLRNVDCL

Misshapen-like kinase 1 = Misshapen-like kinase 1 (Homo sapiens, UniProt Q8N4C8); experiment: Selectivity interaction (Kinase screening (Nanosyn)) EUB0000604a MINK1
[7] = target: T3, NUAK family SNF1-like kinase 2 (Homo sapiens) (UniProt Q9H093); experiment: Selectivity interaction (KinomeScan (DiscoverX)) EUB0001619a NUAK2; conditions: at 1 µM
T3 sequence (whole entry): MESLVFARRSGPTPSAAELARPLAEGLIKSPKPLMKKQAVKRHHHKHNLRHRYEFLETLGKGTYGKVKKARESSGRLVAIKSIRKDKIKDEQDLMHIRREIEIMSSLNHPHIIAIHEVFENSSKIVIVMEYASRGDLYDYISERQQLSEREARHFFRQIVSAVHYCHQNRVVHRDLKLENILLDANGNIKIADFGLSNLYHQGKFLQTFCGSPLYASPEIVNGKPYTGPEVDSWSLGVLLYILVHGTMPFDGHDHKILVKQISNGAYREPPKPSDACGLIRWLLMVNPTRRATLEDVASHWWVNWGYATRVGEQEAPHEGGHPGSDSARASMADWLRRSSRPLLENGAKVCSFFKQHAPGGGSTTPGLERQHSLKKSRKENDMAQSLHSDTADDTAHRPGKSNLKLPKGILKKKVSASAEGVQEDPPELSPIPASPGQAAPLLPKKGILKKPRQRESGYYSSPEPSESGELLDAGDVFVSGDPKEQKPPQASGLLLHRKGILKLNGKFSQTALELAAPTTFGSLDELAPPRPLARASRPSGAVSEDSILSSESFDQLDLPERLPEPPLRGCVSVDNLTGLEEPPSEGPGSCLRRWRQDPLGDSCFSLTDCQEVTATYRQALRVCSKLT

[8] = target: Ribosomal protein S6 kinase alpha-6 (Homo sapiens, UniProt Q9UK32); experiment: Selectivity interaction (KinomeScan (DiscoverX)) EUB0001619a RPS6KA6; conditions: at 1 µM
Ribosomal protein S6 kinase alpha-6, sequence (Q9UK32 whole entry): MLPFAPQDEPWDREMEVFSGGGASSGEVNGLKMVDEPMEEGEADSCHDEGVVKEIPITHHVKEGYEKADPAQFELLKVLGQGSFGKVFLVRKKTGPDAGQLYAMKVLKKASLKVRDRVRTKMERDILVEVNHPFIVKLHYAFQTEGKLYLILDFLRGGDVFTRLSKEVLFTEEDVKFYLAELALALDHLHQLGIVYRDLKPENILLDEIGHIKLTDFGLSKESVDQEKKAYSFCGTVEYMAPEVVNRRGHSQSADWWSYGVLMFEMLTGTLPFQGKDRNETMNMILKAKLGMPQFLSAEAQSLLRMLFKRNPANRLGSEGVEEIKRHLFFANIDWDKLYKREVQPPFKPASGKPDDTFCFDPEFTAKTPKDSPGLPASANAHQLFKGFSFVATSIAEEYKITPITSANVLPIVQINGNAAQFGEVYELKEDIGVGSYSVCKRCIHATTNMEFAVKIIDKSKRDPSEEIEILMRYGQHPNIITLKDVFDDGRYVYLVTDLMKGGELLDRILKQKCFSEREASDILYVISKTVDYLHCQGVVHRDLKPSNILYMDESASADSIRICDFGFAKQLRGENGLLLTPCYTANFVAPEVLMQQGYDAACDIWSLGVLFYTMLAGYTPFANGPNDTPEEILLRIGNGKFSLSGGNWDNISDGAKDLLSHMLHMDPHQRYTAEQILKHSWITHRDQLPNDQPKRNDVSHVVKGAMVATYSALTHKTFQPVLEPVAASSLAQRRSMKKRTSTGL

Misshapen-like kinase 1, sequence (Q8N4C8 whole entry, looked up): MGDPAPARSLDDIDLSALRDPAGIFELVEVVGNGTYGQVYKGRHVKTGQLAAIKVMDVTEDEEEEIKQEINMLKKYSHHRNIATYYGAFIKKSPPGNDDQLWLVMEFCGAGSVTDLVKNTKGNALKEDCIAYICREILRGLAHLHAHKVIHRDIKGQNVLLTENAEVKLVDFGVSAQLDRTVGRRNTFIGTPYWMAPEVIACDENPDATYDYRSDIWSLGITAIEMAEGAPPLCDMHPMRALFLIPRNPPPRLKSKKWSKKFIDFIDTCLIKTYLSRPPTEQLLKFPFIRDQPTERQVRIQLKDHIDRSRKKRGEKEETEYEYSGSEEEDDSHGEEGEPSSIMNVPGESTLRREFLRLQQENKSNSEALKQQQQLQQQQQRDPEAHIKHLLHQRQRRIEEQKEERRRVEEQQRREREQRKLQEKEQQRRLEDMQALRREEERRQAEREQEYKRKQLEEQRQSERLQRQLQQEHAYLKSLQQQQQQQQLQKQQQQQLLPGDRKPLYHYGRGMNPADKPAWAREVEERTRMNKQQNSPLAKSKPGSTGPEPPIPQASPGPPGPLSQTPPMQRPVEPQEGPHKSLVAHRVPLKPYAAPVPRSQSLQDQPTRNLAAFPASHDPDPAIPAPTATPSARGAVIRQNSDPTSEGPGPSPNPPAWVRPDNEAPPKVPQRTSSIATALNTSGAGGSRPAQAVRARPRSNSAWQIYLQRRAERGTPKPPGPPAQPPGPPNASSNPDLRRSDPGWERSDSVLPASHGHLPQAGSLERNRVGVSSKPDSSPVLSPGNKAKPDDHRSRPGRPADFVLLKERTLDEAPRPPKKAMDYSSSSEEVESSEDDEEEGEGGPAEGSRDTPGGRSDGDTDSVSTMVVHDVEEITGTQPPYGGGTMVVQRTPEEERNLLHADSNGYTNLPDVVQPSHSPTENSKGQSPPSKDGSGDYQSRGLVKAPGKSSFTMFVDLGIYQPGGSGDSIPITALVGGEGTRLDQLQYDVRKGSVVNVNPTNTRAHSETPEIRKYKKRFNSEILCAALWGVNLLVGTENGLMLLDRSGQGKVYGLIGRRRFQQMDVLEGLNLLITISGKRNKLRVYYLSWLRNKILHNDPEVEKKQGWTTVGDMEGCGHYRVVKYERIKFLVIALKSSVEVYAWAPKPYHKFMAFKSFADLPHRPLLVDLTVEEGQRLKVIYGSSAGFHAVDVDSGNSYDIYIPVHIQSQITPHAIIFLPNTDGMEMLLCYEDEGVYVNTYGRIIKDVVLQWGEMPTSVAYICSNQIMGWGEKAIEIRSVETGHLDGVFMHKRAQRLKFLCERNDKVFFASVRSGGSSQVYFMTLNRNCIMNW
Protein kinase C beta type, sequence (P05771 2-671 limits assumed): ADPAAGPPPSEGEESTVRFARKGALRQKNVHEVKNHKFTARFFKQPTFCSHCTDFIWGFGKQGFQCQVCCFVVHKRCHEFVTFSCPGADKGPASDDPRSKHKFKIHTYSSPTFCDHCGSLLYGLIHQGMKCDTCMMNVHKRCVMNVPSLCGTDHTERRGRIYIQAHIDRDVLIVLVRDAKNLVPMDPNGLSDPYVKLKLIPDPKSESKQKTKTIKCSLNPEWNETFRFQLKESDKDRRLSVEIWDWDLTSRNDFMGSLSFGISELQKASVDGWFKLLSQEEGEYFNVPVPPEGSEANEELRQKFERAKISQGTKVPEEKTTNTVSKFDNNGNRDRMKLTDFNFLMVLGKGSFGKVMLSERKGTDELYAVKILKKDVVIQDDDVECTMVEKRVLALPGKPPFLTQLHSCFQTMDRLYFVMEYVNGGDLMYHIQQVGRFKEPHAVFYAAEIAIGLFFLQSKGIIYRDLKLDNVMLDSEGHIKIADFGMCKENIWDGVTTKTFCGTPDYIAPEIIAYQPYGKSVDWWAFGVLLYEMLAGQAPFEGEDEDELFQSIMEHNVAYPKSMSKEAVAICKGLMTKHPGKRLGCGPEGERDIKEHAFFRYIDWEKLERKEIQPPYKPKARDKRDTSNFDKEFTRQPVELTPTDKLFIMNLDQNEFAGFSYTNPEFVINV
Serine/threonine-protein kinase SBK1 (Homo sapiens), sequence (Q52WX2 whole entry): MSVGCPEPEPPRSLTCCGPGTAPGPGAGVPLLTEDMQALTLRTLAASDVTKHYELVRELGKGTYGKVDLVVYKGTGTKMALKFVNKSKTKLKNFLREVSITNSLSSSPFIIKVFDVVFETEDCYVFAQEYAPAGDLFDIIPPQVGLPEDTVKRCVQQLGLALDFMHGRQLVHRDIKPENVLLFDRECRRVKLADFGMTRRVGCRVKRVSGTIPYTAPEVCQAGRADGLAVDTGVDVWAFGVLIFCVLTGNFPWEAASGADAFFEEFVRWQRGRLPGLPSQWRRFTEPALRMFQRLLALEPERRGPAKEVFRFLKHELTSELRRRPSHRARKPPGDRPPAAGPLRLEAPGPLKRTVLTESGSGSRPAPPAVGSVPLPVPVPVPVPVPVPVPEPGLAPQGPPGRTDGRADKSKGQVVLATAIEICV
Angiopoietin-1 receptor (Homo sapiens), sequence (Q02763 whole entry): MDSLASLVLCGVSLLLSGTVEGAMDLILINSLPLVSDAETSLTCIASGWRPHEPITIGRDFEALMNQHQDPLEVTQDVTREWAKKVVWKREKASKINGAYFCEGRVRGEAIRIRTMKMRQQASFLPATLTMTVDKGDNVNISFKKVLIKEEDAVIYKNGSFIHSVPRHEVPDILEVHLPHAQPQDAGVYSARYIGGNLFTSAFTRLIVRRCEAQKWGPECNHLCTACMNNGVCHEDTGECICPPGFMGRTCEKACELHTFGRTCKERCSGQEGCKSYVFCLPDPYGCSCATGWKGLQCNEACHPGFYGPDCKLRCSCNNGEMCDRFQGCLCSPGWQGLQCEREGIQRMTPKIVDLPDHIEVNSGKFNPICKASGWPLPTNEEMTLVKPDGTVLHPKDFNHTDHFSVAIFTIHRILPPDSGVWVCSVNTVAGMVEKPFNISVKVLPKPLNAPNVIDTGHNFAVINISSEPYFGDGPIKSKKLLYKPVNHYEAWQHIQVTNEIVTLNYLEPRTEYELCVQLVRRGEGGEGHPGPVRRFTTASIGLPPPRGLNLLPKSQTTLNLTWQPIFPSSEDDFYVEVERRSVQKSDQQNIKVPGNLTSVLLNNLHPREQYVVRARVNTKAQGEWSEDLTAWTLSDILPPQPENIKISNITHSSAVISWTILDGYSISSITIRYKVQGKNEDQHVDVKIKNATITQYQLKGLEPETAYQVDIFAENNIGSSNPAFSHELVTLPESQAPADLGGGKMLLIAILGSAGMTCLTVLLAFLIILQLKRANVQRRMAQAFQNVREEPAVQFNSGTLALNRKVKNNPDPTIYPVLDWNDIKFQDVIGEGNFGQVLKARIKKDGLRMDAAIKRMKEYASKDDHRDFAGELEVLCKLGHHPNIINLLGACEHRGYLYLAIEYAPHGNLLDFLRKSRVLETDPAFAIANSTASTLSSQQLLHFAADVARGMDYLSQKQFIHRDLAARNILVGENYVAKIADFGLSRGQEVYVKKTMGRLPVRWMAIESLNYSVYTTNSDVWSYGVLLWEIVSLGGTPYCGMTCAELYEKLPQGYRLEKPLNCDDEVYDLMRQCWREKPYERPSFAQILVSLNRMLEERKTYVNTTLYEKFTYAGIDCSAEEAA

Molecule `CN(C)CCCOc1ccc(-c2cc(NCCCn3cccn3)nc(S(C)(=O)=O)n2)cc1` has a dTM [1] of less than 2 K.
With `Cc1cc([C@@H](C)Nc2ccccc2C(=O)O)c2nc(N3CCOCC3)cc(=O)n2c1` [AZD-6482] the % of control [2] was 100%.
Molecule `Cn1cc(-n2cnc3c(NCc4nc5cc(Cl)c(Cl)cc5[nH]4)nc(N4CCOCC4)nc32)cn1` has a % of control [3] of 15.6%.
Work on `Cc1cc(F)c(C(=O)Nc2cccc(-c3nncn3C(C)C)n2)cc1-n1cnc(C2CC2)c1` yielded a % of control [4] of 100% and a % of control [5] of 93%.
With `COCC(=O)NC/C=C/c1ccc2ncnc(Nc3ccc(Oc4ccc(C)nc4)c(C)c3)c2c1` [CP-724714] the % of control [6] was 90%.
`Cc1cnc(Nc2ccc(F)cc2Cl)nc1-c1c[nH]c(C(=O)N[C@H](CO)c2cccc(Cl)c2)c1` showed a % of inhibition (Misshapen-like kinase 1) of 18%.
`N#Cc1cccc(-c2c[nH]c3ncnc(N4CCOCC4)c23)c1` was tested, and the % of control [7] was 18% and the % of control [8] was 9.8%.
